Test results from patent publication US20240270821A1, “GIP/GLP1/GCG TRI-RECEPTOR AGONISTS AND USES THEREOF” (priority 2023, published 2024).
Starred links: 1 amine or outer side, 2 acyl side, 3 side chain; linkers in the order of their positions; H or OH if unused. Non-standard residues stand in square brackets, D forms with d. Groups on a side chain read outwards from the residue. *: point of attachment. C20 diacid = O=C(O)CCCCCCCCCCCCCCCCCCC(=O)*; C18 diacid = O=C(O)CCCCCCCCCCCCCCCCC(=O)*; γGlu = O=C(O)[C@H](CCC(=O)[*:2])N[*:1]; 4Pal = N[C@@H](Cc1ccncc1)C(=O)O; αMeL = CC(C)C[C@](C)(N)C(=O)O; Orn = NCCC[C@H](N)C(=O)O; AEEA = NCCOCCOCC(=O)O; Aib = CC(C)(N)C(=O)O

Columns and labels:
Format in all cases: cell-based
hGcgR = hGcgR (Homo sapiens, UniProt P47871); assay: Functional cAMP activation in the presence of 0.1% casein (no HSA); conditions: in the presence of 0.1% casein (no HSA); geometric mean; read-out: Relative cAMP EC50, hGcgR;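 further: intracellular cAMP rise after 30 min at 37 °C, read by HTRF against a cAMP standard curve, scaled from buffer only (0%) to maximal control ligand response (100%)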
hGIPR [1] = target: T1, hGIPR (Homo sapiens, UniProt P48546); assay: as above; conditions: in the presence of 0.1% casein (no HSA); geometric mean; read-out: Relative cAMP EC50, hGIPR;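 further: intracellular cAMP rise after 30 min at 37 °C read by HTRF against a standard curve, scaled between buffer alone (0%) and top control ligand concentration (100%), four-parameter fit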
T1 sequence (P48546 22-466): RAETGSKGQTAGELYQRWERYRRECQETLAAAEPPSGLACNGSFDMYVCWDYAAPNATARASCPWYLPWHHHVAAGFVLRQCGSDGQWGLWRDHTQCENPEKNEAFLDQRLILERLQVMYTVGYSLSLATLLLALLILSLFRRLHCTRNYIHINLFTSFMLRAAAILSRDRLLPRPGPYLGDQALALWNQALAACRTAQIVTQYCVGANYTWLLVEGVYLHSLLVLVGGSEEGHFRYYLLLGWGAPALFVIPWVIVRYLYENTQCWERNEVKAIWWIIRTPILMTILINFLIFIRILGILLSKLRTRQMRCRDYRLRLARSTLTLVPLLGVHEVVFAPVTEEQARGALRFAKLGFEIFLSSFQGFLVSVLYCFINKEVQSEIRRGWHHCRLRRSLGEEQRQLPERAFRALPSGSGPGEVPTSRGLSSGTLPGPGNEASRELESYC

hGIPR [2] = target: T1, hGIPR; assay: Functional cAMP activity in the presence of 1% HSA; conditions: read-out: cAMP Rel EC50, hGIPR
human GLP1-R = human GLP1-R (Homo sapiens, UniProt P43220); assay: GLP1-R internalization assay in HEK293 cells; conditions: for EC50: HEK293 cells expressing SNAP-GLP-1R, read-out: GLP1R Internalization EC50; for Internalization % TOP: normalized to maximum concentration of GLP-1 (100%)
hGLP-1R [3] = target: T2, hGLP-1R (Homo sapiens, UniProt P43220); assay: Functional cAMP activity in the presence of 1% HSA; conditions: read-out: cAMP Rel EC50, hGLP-1R
human GcgR = human GcgR (Homo sapiens, UniProt P47871); assay: Functional cAMP activity in the presence of 1% HSA; conditions: read-out: cAMP Rel EC50, hGcgR
hGLP-1R [4] = target: T2, hGLP-1R; assay: Functional cAMP activation in the presence of 0.1% casein (no HSA); conditions: in the presence of 0.1% casein (no HSA); geometric mean; read-out: Relative cAMP EC50, hGLP-1R;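 on Relative cAMP EC50, hGIPR: intracellular cAMP rise after 30 min at 37 °C read by HTRF against a standard curve, scaled between buffer alone (0%) and top control ligand concentration (100%), four-parameter fit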;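 on Relative cAMP EC50, hGLP-1R: intracellular cAMP rise after 30 min at 37 °C read by HTRF, normalized between buffer only (0%) and maximal control ligand (100%), four-parameter variable-slope fit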

Sequence of human GLP1-R (P43220 24-463): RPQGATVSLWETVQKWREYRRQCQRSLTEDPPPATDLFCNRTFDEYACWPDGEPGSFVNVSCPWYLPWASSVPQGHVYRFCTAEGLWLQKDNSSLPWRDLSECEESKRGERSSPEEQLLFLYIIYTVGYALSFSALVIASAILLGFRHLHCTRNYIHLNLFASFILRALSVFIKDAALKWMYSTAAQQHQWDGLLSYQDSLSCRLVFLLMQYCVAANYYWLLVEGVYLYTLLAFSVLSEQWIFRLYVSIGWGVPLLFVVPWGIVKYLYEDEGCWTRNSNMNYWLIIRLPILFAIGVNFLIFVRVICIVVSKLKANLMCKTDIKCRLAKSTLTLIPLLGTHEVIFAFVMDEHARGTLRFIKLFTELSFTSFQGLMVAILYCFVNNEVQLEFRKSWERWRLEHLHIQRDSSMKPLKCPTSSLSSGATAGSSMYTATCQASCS
T2 sequence (P43220 24-463): as above
Sequence of hGcgR (P47871 26-477): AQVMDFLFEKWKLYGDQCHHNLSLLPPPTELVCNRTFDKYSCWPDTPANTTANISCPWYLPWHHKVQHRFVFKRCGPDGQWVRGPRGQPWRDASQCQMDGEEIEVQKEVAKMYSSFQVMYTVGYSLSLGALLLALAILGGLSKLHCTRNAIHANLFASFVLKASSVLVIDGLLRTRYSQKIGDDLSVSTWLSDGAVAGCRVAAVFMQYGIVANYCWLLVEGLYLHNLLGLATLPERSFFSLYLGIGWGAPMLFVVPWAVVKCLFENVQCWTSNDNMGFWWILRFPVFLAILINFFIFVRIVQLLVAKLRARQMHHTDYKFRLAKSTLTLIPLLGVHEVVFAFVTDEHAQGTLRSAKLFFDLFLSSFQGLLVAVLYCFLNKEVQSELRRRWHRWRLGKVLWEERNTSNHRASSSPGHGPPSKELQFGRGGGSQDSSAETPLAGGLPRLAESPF
Sequence of human GcgR (P47871 26-477): as above

Compound	EC50 (hGcgR) [nM]	EC50 (hGIPR [1]) [nM]	EC50 (hGIPR [2]) [nM]	EC50 (human GLP1-R) [nM]	Internalization % TOP (human GLP1-R) [%]	EC50 (hGLP-1R [3]) [nM]	EC50 (human GcgR) [nM]	EC50 (hGLP-1R [4]) [nM]
H-Y[Aib]QGTFTSDFS[Orn][αMeL]LDKK([AEEA-AEEA-γGlu-C18 diacid])AQ[Aib]AFIEYLLE[Aib]GPSSGEPPPSGS-NH2 [Example 166]	3.82	0.118	21	74.6	44.2	1500	724	6.96
H-Y[Aib]QGTFTSDFS[Orn][αMeL]LDKK([AEEA-γGlu-C18 diacid])AQ[Aib]AFIEWLLEGGSSSGAPPPSGS-NH2 [Example 173]	3.6	0.168	49.9	97.1	38.6	293	745	2.32
H-Y[Aib]QGTFTSDFSK[αMeL]LDKK([AEEA-γGlu-C18 diacid])AQ[Aib]AFIEYLLEGGPSSGAPPPSGS-NH2 [Example 141]	1.77	0.21	62.1	95.3	64.1	562	877	1.96
H-Y[Aib]QGTFTSDFSK[αMeL]LDKK([AEEA-γGlu-C20 diacid])AQ[Aib]AFIEYLLAGGPSSGEPPPSGS-NH2 [Example 8]	6.65	0.231	39.4	63.2	74	603	1560	2.11
H-Y[Aib]QGTFTSDFS[Orn][αMeL]LDKK([AEEA-γGlu-C18 diacid])AQ[Aib]AFIEYLLE[Aib]G[4Pal]SSGAPPPSGE-NH2 [Example 248]	3.36	0.0861	10.6	67.4	39.5	438	241	3.17
H-Y[Aib]QGTFTSDFSK[αMeL]LDKK([γGlu-γGlu-C18 diacid])AQ[Aib]AFIEYLLEGGPSSGAPPPSEG-NH2 [Example 58]	4.86	0.175	3.75	56.2	78.1	20.7	115	2.93
H-Y[Aib]QGTFTSD[4Pal]S[Orn][αMeL]LDKK([AEEA-γGlu-C18 diacid])AQ[Aib]AFIEWLLEGGPSSGEPPPSGE-NH2 [Example 115]	10.6	0.457	73.9	255	56.5	1460	2210	7.6
CC[C@H](C)[C@H](NC(=O)[C@H](Cc1ccccc1)NC(=O)[C@H](C)NC(=O)C(C)(C)NC(=O)[C@H](CCC(N)=O)NC(=O)[C@H](C)NC(=O)[C@H](CCCCNC(=O)COCCOCCNC(=O)CC[C@H](NC(=O)CCCCCCCCCCCCCCCCC(=O)O)C(=O)O)NC(=O)[C@H](CCCCN)NC(=O)[C@H](CC(=O)O)NC(=O)[C@H](CC(C)C)NC(=O)[C@](C)(CC(C)C)NC(=O)[C@H](CCCCN)NC(=O)[C@H](CO)NC(=O)[C@H](Cc1ccccc1)NC(=O)[C@H](CC(=O)O)NC(=O)[C@H](CO)NC(=O)[C@@H](NC(=O)[C@H](Cc1ccccc1)NC(=O)[C@@H](NC(=O)CNC(=O)[C@H](CCC(N)=O)NC(=O)C(C)(C)NC(=O)[C@@H](N)Cc1ccc(O)cc1)[C@@H](C)O)[C@@H](C)O)C(=O)N[C@@H](CCC(=O)O)C(=O)N[C@@H](Cc1ccc(O)cc1)C(=O)N[C@@H](CC(C)C)C(=O)N[C@@H](CC(C)C)C(=O)N[C@@H](C)C(=O)NCC(=O)NCC(=O)N1CCC[C@H]1C(=O)N[C@@H](CO)C(=O)N[C@@H](CO)C(=O)NCC(=O)N[C@@H](CCC(=O)O)C(=O)N1CCC[C@H]1C(=O)N1CCC[C@H]1C(=O)N1CCC[C@H]1C(=O)N[C@@H](CO)C(=O)N[C@@H](CCC(=O)O)C(=O)NCC(N)=O [Example 22]	5.42	0.246	81	41.9	64.7	592	532	2.94
